Reference: US20260137701A1, “CHOLESTENOIC ACID (CA) AND A SULFATED DERIVATIVE THEREOF, 3[BETA]-SULFATE-5-CHOLESTENOIC ACID (CA3S), AS ENDOGENOUS EPIGENETIC REGULATORS” (priority 2022, published 2026)

Experiments:
HepG-2 cells [1] = test: LC-MS/MS determination of CA levels in total cellular and nuclear extracts; format: in vitro ADME, human; settings: addition of 20 μM CA
Method: HepG-2 cells, 5,000 cells/cm^2, were cultured in DMEM (HG, 10% FBS) medium for 3 days, and then treated with 20 μM of CA for 0, 3, 6, 12, and 24 hours. After treatment, the cells were washed twice with cold PBS then harvested with 1 ml PBS. For total cell extraction, the cells were collected by centrifuge at 1,000 rpm for 5 min. For nuclei extraction, the nuclear fractions were extracted according to the manufacture's instructions for NE-PER™ Nuclear and Cytoplasmic Extraction Reagents (Thermo Scientific, Rockford, IL). Total proteins in the cell and nuclear fractions were digested with proteinase K (2 mg/ml), incubated at 50° C. with shaking for 3 hours. The total lipids in the total cell and nuclear fractions were extracted with 10 volumes of chloroform:methanol 1:1, vortexed, and sonicated for 30 mins. The extracts were centrifuged at 1,000 rpm for 5 min, the supernatants were dried up by stream nitrogen, then dissolved with 200 μl of methanol, 2 μl of the extracts were used for the CA analysis by LC-MS/MS system as below.
Shimadzu LCMS-8600 CL LC-MS system equipped with electrospray ionization (ESI) were used to determine the CA levels. Data were collected and processed using Shimadzu Lab solutions software. Hypersil Gold™ C18 (50 mm×2.1 mm inner diameter, particle size 2.6 μm, Thermo Scientific) was maintained at 40° C. during the analysis. […]

HepG-2 cells [2] = test: Untargeted lipidomics analysis; format: cell-based, human
Method: HepG-2 cells were cultured in DMEM medium with HG for 72 hours followed by treating with 20 μM CA for 24, 48, and 72 hours. The cells were harvested with 500 μl 1× PBS, and sent to Creative Proteomics Co., Ltd (New York, USA) for untargeted lipidomics analysis. Samples were thawed and 1.5 mL chloroform:methanol (2:1, v/v) added to sample, vortexed for 1 min, and followed by sonication for 30 min, 4° C. Then centrifuge 10 min at 12,000 rpm, 4° C., transfer the lower phase to a new tube, dry under the nitrogen. The dried extract with 200 μl of isopropyl alcohol:methanol (1:1, v/v); add 5 μl LPC (12:0) for internal standard. Finally, centrifuge 10 min at 12,000 rpm, 4° C.; transfer the supernatant for LC-MS analysis. Separation is performed by UltiMate™ 3000 LC combined with Q Exactive™ MS (Thermo) and screened with ESI-MS. The LC system is comprised of ACQUITY UPLC® BEH C18 (100×2.1 mm×1.7 μm) with UltiMate™ 3000 LC. The mobile phase is composed of solvent A (60% ACN+40% H2O+10 mM HCOONH4) and solvent B (10% ACN+90% isopropyl alcohol+10 mM HCOONH4) with a gradient elution (0-10.5 min, 30%-100% B; 10.5 min-12.5 min, 100% B; 12.5-12.51 min, 100%-30% B; 12.51-16.0 min, 30% B). The flow rate of the mobile phase is 0.3-1 mL·min. The column temperature is maintained at 40° C., and the sample manager temperature is set at 4° C. Mass spectrometry parameters in ESI+ and ESI− mode are listed as follows: ESI+: Heater Temp 300° C.; Sheath Gas Flow rate, 45 arb; Aux Gas Flow Rate, 15 arb; Sweep Gas Flow Rate, larb; spray voltage, 3.0 KV; Capillary Temp, 350° C.; S-Lens RF Level, 30%. ESI−: Heater Temp 300° C., Sheath Gas Flow rate, 45 arb; Aux Gas Flow Rate, 15 arb; Sweep Gas Flow Rate, larb; spray voltage, 3.2 KV; Capillary Temp, 350° C.; S-Lens RF Level, 60%.

recombinant DNMT3b = recombinant DNMT3b (Homo sapiens, UniProt Q9UBC3); test: DNMT3b enzyme kinetic (activity) assay, 3H-SAM filter; format: biochemical; settings: read-out: IC50, inhibits DNMT3b activity
Method: The enzyme kinetic studies were carried out by Reaction Biology Company. For the DNMT1 activity assay, the substrate solution, 0.001 mg/ml Poly(dI-dC): Poly(dI-dC) in 50 mM Tris-HCl, pH 7.5, 50 mM NaCl, 5 mM EDTA, 5 mM DTT, 1 mM PMSF, 5% glycerol, 0.01% Brij™35, 1% DMSO was used. For the DNMT3a/3b activity assay, 0.0075 mg/ml Lambda DNA in 50 mM Tris-HCl, pH 7.5, 50 mM NaCl, 5 mM EDTA, 5 mM DTT, 1 mM PMSF, 5% glycerol, 1% DMSO, was used. The indicated DNMT1, DNMT3a and DNMT3b were added to the appropriate substrate solution and gently mixed. Amounts of CA ranging from 5.08E-09 to 0.0001 M in DMSO were added to the reaction mixture by using Acoustic Technology (Echo® 550, LabCyte Inc. Sunnyvale, CA). The mixtures were first incubated for 15 min, then ^3H-SAM was added to the reaction mixture to initiate the reaction, and the mixture was incubated for 60 min at 30° C. Following incubation, the reaction mixture was finally transferred to filter-paper for detection of radioactivity counts.

Q: For `CC(CCC[C@@H](C)[C@H]1CC[C@H]2[C@@H]3CC=C4C[C@@H](O)CC[C@]4(C)[C@H]3CC[C@]12C)C(=O)O` (stereo partly drawn) [CA, 3β-hydroxy-5-cholestenoic acid], which “increase of CA in cellular nuclei” value (HepG-2 cells [1]; 6 hours) is on record?
A: 4 fold

Q: And the “increase of intracellular CA levels” value (HepG-2 cells [1]; 12 hours)?
A: 85 fold

Q: And the “average decreased percentage of ChE (cholesterol ester)” value (HepG-2 cells [2]; 20 μM CA, 48 hours)?
A: 47%

Q: And the “average decreased percentage of DG (Diglycerides)” value (HepG-2 cells [2]; 20 μM CA, 48 hours)?
A: 76%

Q: What about the “average decreased percentage of FA” value (HepG-2 cells [2]; 20 μM CA, 48 hours) of the same compound?
A: 65%

Q: What about the “average decreased percentage of MG (Monoglycerides)” value (HepG-2 cells [2]; 20 μM CA, 48 hours) of the same compound?
A: 53%

Q: And the “average decreased percentage of TG (Triglycerides)” value (HepG-2 cells [2]; 20 μM CA, 48 hours)?
A: 70%

Q: What about the “lipid levels (GP, SP, GL, ST, FA)” value (HepG-2 cells [2]; HG medium 72 hours, then 20 μM CA) of the same compound?
A: significantly decreased

Q: And the IC50 (recombinant DNMT3b)?
A: 4.89 µM
